In one assay the test system is MV-4-11 leukemia cells. Put plainly: Inhibitory activity against tumor cells, CellTiter-Glo: MV-4-11. In kind it is cell-based. Particulars: Homo sapiens, MV4-11, 120 h, MV-4-11, 5 days treatment. On the procedure: (§1) MCF7 (ATCC #HTB-22) and T47D (ATCC #HTB-133) breast cancer cells and PANC-1 (ATCC #CRL-1469) pancreatic cancer cells were purchased from ATCC. MDA-MB-231 (Cobioer #CBP60382), HCC1806 (Cobioer #CBP60373), and MDA-MB-468 (Cobioer #CBP60387) breast cancer cells, HCT-116 (Cobioer #CBP60028) colorectal cancer cells, and OCI-AML-3 (Cobioer #CBP60817) and MV-4-11 (Cobioer #CBP60522) leukemia cells were purchased from Nanjing Cobioer Biosciences Co., Ltd.
(§2) OCI-AML-3 was cultured in RPMI 1640 medium with 20% FBS; HCC1806 and T47D were cultured in RPMI 1640 medium with 10% FBS; MCF7, MDA-MB-231, MDA-MB-468, and PANC-1 were cultured in DMEM medium with 10% FBS; MV-4-11 was cultured in IMDM medium with 20% FBS; HCT-116 was cultured in MC′5A medium with 10% FBS.
(§3) Palbociclib-resistant cells were constructed on MCF7 parent cells, designated MCF7 Palbo-R, and the culture conditions were consistent with those of the parent cells. All tumor cells were cultured in a cell incubator at 37° C. with 5% CO2. The cells were seeded at corresponding cell densities (600 cells/well for MDA-MB-231; 500 cells/well for MDA-MB-468, PANC-1, and HCT-116; 200 cells/well for MCF7 and HCC1806; 800 cells/well for MCF7 Palbo-R; 3000 cells/well for OCI-AML-3 and MV-4-11) in 384-well plates and cultured overnight in the incubator. On the second day, the cells were treated with compounds. The maximum compound concentration was 10 μM and was 3-fold diluted to obtain 9 concentrations, each tested in duplicate, and the final concentration of DMSO was 0.1%. The cells continued to be cultured in the incubator, with MDA-MB-231, PANC-1, MDA-MB-468, OCI-AML-3, and MV-4-11 being treated with drugs for 5 days and HCC1806, MCF7, MCF7 Palbo-R, and HCT116 being treated with drugs for 7 days. Cell viability was tested using the Celltiter Glo assay kit (Promega), and the testing method was consistent with the operational method provided by the kit. Readings were taken using an Envision multimode microplate reader. Data were processed using GraphPad Prism 8, and IC50 was calculated. […]

In another assay the test system is OCI-AML-3 leukemia cells. Put plainly: Inhibitory activity against tumor cells, CellTiter-Glo: OCI-AML-3. In kind it is cell-based. Particulars: Homo sapiens, 120 h, OCI-AML-3, 5 days treatment. The procedure: as §1, §2, §3
The test system of assay [1] is OVCAR3 ovarian cancer cells. Put plainly: Inhibitory activity against ovarian cancer cells (OVCAR3), CellTiter-Glo viability. The assay is classed as cell-based. Particulars: Homo sapiens, OVCAR-3, 120 h, OVCAR3, 5 days treatment. On the procedure: OVCAR3 ovarian cancer cells were cultured in a cell incubator at […] with 5% CO2 using RPMI 1640 medium with […]. On the first day, the cells were plated in a 96-well plate at a cell concentration of 2500 cells/well and cultured overnight in the incubator. On the second day, the cells were treated with compounds. The maximum compound concentration was 10 μM and was 3-fold diluted to obtain 9 concentrations, and the final concentration of DMSO was 0.1%. After the cells were cultured in the incubator for another 5 days, cell viability was tested using the Celltiter Glo assay kit (Promega), and the testing method was consistent with the operational method provided by the kit. Data were processed using GraphPad Prism 8, and IC50 was calculated.
(§4) [formula] • X: the logarithm of the compound concentration; Y: % inhibition.

A further assay deals with various tumor cell lines. The assay can be described thus: Inhibitory activity against tumor cells, summary over the panel of Tables 4 and 5. In kind it is cell-based. Particulars: summary of Tables 4 and 5. The procedure:
as §1, §2
Palbociclib-resistant cells were constructed on MCF7 parent cells, designated MCF7 Palbo-R, and the culture conditions were consistent with those of the parent cells. All tumor cells were cultured in a cell incubator at 37° C. with 5% CO2. The cells were seeded at corresponding cell densities (600 cells/well for MDA-MB-231; 500 cells/well for MDA-MB-468, PANC-1, and HCT-116; 200 cells/well for MCF7 and HCC1806; 800 cells/well for MCF7 Palbo-R; 3000 cells/well for OCI-AML-3 and MV-4-11) in 384-well plates and cultured overnight in the incubator. On the second day, the cells were treated with compounds. The maximum compound concentration was 10 μM and was 3-fold diluted to obtain 9 concentrations, each tested in duplicate, and the final concentration of DMSO was 0.1%. The cells continued to be cultured in the incubator, with MDA-MB-231, PANC-1, MDA-MB-468, OCI-AML-3, and MV-4-11 being treated with drugs for 5 days and HCC1806, MCF7, MCF7 Palbo-R, and HCT116 being treated with drugs for 7 days. Cell viability was tested using the Celltiter Glo assay kit (Promega), and the testing method was consistent with the operational method provided by the kit. Readings were taken using an Envision multimode microplate reader. Data were processed using GraphPad Prism 8, and IC50 was calculated.
Y=Bottom+(Top−Bottom)/(1+10^((Log IC50−X)×HillSlope)). Calculation formula: • X: the logarithm of the compound concentration; Y: % inhibition.

The next assay has as its target CDK2/CyclinE1 (Homo sapiens, UniProt P24941). The assay can be described thus: ADP-Glo kinase assay, CDK2. The assay is classed as biochemical. Particulars: 1 nM CDK2/CyclinE1, 15 μM ATP (Km), Histone H1, 60 min; read-out: inhibitory activity (IC50, nM) CDK2. The procedure:
(§5) The ADP-Glo kinase assay was used for testing the activity of CDKs. The compounds were diluted in 384-well plates using Echo. The starting concentration was 10 μM and was 3-fold diluted to obtain 10 concentration points, each tested in duplicate, and the final concentration of DMSO in the assay system was 1%. CDK solutions (the final concentrations were 16.5 nM CDK1/CyclinB, 1 nM CDK2/CyclinE1, 16.3 nM CDK4/CyclinD1, 11.5 nM CDK5/p25, 15.7 nM CDK6/CyclinD3, 80 nM CDK7/Cyclin H/MAT1, 15.3 nM CDK9/Cyclin T1, and 150 nM CDK12/CyclinK) prepared in assay buffer were added at 2.5 μL, and the enzymes and compounds were pre-incubated at room temperature for 10 min. ATP (the concentration was Km) & substrate solutions (20 μM ATP & 0.1 mg/mL Histone H1 Protein for CDK1/CyclinB, 15 μM ATP & 0.1 mg/mL Histone H1 Protein for CDK2/CyclinE1, 200 μM ATP & 0.2 mg/mL DYRKtide peptide for CDK4/CyclinD1, 10 μM ATP & 0.1 mg/mL Histone H1 Protein for CDK5/p25, 200 μM ATP & 0.1 mg/mL Histone H1 Protein for CDK6/CyclinD3, 70 μM ATP & 0.2 mg/mL MBP for CDK7/Cyclin H/MAT1, 60 μM ATP & 0.2 mg/mL PDKtide for CDK9/Cyclin T1, and 20 μM ATP & 80 μM pS7-CTD peptide for CDK12/CyclinK) prepared in assay buffer were added at 2.5 μL. After thorough mixing, the plates were incubated at room temperature, with CDK1/4/9/12/13 incubated for 120 min and CDK2/5/6/7 incubated for 60 min. ADP-Glo reagents were added at 4 μL, and the plates were incubated at room temperature for 40 min. Kinase detection reagents were added at 8 μL, and the plates were incubated at room temperature for 40 min. Readings were taken using an Envision multimode microplate reader. Data were processed using GraphPad Prism 8, and IC50 was calculated.
as §4
For orientation: In ADP-Glo the light output rises with the ADP produced.

Assay [2] has as its system MCF7 Palbo-R (palbociclib-resistant cells constructed on MCF7). The assay can be described thus: Inhibitory activity against tumor cells, CellTiter-Glo: MCF7 Palbo-R. The assay is classed as cell-based. Particulars: Homo sapiens, 168 h, 7 days treatment. On the procedure:
as §1, §2, §3
For orientation: Cellular ATP, detected with luciferase, serves as a proxy for viable cell number.

The next assay deals with CDK1/CyclinB (Homo sapiens, UniProt P06493). The assay can be described thus: ADP-Glo kinase assay, CDK1. The note with it: 16.5 nM CDK1/CyclinB, 20 μM ATP (Km), Histone H1, 120 min; read-out: inhibitory activity (IC50, nM) CDK1. In kind it is biochemical. On the procedure: as §5, with “After thorough mixing, the plates were incubated at room temperature, with CDK1/4/9/12/13 incubated for 120 min and CDK2/5/6/7 incubated for 60 min. ADP-Glo reagents were added at 4 μL, and the plates were incubated at room temperature for 40 min. Kinase detection reagents were added at 8 μL, and the plates were incubated at room temperature for 40 min.” left out, “calculated. […]” for “calculated.”
CDK1/CyclinB, sequence (P06493 whole entry, species assumed): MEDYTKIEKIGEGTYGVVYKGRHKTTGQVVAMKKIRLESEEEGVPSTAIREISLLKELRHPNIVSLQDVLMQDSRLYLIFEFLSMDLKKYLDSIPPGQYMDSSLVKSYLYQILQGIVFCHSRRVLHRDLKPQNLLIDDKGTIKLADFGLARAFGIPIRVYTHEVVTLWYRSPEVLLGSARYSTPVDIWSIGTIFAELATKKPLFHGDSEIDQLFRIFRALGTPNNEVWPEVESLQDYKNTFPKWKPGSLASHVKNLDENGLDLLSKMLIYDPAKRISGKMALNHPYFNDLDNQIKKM
CDK1/CyclinB, sequence (P14635 whole entry partner, species assumed): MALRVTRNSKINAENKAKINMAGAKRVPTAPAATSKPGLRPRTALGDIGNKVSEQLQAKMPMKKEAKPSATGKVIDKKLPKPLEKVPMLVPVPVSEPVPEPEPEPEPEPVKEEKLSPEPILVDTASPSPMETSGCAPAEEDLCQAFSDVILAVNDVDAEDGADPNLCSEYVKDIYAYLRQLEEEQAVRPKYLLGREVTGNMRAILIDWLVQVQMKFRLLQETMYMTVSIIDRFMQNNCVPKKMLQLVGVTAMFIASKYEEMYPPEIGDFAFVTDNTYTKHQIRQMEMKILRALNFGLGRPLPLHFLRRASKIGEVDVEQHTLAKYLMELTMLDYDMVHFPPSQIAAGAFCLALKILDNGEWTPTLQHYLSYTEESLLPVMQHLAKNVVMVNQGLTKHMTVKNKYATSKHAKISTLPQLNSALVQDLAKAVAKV

The target of another assay is CDK12/CyclinK (Homo sapiens, UniProt Q9NYV4). Put plainly: ADP-Glo kinase assay, CDK12. Particulars: 150 nM CDK12/CyclinK, 20 μM ATP (Km), pS7-CTD peptide, 120 min; read-out: inhibitory activity (IC50, nM) CDK12. In kind it is biochemical. On the procedure: as §5, with “After thorough mixing, the plates were incubated at room temperature, with CDK1/4/9/12/13 incubated for 120 min and CDK2/5/6/7 incubated for 60 min. ADP-Glo reagents were added at 4 μL, and the plates were incubated at room temperature for 40 min. Kinase detection reagents were added at 8 μL, and the plates were incubated at room temperature for 40 min.” left out, “calculated. […]” for “calculated.”
CDK12/CyclinK, sequence (Q9NYV4 whole entry, species assumed): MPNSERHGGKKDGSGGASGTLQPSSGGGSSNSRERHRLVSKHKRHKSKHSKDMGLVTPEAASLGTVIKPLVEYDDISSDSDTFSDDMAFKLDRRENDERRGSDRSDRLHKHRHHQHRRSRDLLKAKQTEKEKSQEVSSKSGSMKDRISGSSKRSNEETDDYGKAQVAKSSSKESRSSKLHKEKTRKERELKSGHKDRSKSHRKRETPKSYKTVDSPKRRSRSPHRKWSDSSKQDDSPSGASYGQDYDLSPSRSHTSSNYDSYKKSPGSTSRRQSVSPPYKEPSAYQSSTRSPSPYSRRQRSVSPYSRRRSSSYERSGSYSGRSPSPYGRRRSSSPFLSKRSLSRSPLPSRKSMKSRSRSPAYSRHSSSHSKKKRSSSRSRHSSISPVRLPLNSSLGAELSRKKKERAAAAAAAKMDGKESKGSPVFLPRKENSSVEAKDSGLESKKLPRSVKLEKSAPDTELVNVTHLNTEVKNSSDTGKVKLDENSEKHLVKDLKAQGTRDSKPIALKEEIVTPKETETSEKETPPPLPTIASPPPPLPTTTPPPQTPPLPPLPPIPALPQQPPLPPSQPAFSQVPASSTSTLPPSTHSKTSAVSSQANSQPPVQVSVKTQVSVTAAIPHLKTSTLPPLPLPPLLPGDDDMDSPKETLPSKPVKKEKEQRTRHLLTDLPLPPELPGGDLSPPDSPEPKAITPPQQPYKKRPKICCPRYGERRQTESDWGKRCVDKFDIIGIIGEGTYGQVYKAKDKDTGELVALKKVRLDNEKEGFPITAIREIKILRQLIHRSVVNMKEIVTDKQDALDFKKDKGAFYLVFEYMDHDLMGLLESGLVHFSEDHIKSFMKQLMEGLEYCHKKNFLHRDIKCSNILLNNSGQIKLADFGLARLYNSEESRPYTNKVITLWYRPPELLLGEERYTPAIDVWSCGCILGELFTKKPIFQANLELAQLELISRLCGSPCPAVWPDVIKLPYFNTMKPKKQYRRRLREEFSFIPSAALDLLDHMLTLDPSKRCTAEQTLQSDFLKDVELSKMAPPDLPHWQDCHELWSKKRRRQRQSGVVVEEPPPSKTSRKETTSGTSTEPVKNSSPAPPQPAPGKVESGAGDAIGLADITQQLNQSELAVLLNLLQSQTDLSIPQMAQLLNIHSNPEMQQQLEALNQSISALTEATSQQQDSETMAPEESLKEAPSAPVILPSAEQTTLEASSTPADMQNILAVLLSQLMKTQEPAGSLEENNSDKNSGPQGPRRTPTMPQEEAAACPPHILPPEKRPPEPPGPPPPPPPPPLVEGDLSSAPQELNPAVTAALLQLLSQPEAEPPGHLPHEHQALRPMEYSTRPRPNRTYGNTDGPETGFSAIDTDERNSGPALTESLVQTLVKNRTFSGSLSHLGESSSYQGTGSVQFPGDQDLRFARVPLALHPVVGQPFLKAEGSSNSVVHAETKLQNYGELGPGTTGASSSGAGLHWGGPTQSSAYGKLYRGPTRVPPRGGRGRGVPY
CDK12/CyclinK, sequence (O75909 whole entry partner, species assumed): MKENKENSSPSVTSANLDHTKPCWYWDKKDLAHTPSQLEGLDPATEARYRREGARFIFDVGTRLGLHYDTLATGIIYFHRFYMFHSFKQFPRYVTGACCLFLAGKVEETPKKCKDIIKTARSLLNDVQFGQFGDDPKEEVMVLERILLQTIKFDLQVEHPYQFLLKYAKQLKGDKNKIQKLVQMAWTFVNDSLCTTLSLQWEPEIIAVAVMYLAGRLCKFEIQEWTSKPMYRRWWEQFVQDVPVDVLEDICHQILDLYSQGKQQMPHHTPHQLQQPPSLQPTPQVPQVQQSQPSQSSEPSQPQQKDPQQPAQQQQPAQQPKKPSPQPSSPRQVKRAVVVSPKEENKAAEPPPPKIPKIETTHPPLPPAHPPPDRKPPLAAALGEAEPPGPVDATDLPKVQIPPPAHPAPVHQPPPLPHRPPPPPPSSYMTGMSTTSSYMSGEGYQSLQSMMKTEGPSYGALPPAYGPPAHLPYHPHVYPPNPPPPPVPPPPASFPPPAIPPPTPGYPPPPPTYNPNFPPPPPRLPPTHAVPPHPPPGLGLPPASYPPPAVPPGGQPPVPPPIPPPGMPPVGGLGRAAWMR

pIC50: −log10 of the molar value. Bounds are passed on as bounds.

A word on the pIC50: it is −log10 of the IC50, conventionally taken in molar units. Higher therefore signals a low IC50. One may read the IC50 as the concentration that inhibits the measured activity by half.

Turning to `C[C@H](Nc1ncc2c(n1)CN(C(=O)N[C@H](CN(C)C)c1ccccc1)[C@H](C)C2)c1ccccn1` [Example 6, (R)—N—((S)-2-(Dimethylamino)-1-phenylethyl)-6-methyl-2-(((S)-1-(pyridin-2-yl)ethyl)amino)-5,8-dihydropyrido[3,4-d]pyrimidine-7(6H)-carboxamide], the values for the pIC50 (in the assay on MV-4-11 leukemia cells; with OCI-AML-3 leukemia cells; in assay [2]) were 7.72, 7.48 and 7.61, respectively. For the same compound, the IC50 in assay [1] was 27.7 nM; on CDK2/CyclinE1, 1900 nM; on CDK1/CyclinB it was greater than 10000 nM; at CDK12/CyclinK, greater than 10000 nM. Moreover, the “inhibitory activity against the various tumor cell lines (in words)” value with various tumor cell lines is recorded as “high inhibitory activity”.
With `C[C@@H]1Cc2cnc(NCc3ccn(C)n3)nc2CN1C(=O)N[C@H](CN(C)C)c1ccccc1` [Example 2, (R)—N—((S)-2-(Dimethylamino)-1-phenylethyl)-6-methyl-2-(((1-methyl-TH-pyrazol-3-yl)methyl)amino)-5,8-dihydropyrido[3,4-d]pyrimidine-7(6H)-carboxamide], the values for the pIC50 (with MV-4-11 leukemia cells; with OCI-AML-3 leukemia cells; in assay [2]) were 7.74, 7.48 and 7.39, respectively. For the same compound, the 50% inhibitory concentration (IC50) in assay [1] was 24.2 nM; on CDK2/CyclinE1, 2330 nM; at CDK1/CyclinB, greater than 10000 nM; at CDK12/CyclinK it was greater than 10000 nM. In the assay on various tumor cell lines, the “inhibitory activity against the various tumor cell lines (in words)” value is “high inhibitory activity”.

These data come from patent US20260176266A1, “PIPERIDINOPYRIMIDINE DERIVATIVE, PREPARATION METHOD THEREFOR AND USE THEREOF IN MEDICINE” (TUOJIE BIOTECH (SHANGHAI) CO., LTD., priority 2022, published 2026).
